Key:
human PPARα = biological target: T1, human PPARα (Homo sapiens, UniProt Q07869); experiment: PPARα competition binding assay
T1 sequence (Q07869 1-468): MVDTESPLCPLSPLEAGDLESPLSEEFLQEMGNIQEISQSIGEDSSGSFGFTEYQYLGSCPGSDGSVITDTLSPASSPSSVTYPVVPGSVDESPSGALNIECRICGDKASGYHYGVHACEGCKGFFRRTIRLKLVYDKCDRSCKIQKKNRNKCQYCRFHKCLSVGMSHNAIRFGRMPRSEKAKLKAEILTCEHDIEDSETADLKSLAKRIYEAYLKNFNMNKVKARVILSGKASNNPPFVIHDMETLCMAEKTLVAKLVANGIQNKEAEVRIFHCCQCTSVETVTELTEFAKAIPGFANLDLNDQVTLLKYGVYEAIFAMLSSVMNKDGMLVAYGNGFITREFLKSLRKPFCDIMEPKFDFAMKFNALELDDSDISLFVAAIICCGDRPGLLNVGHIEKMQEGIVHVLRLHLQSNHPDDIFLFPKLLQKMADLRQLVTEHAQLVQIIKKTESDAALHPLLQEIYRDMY
Text: (§1) The term ligand throughout this application should be understood to include an agonist, partial agonist or antagonist of LXR. The ligand may be selective for LXRα or LXRβ, or it may have mixed binding affinity for both LXRα and LXRβ. Particularly, compounds within the scope of this invention include those which have greater selectivity as determined by binding affinity for LXRα and/or LXRβ receptors than they have for each of the PPARα, γ and δ receptors.

[1] = biological target: T2, human GST-LXRβ ligand binding domain receptor (Homo sapiens, UniProt P55055); experiment: Radioligand competition binding scintillation proximity assay, LXRβ
T2 construct: human LXRβ (amino acids 149-455) were subcloned into the pGEX-KT expression vector; made in house; host or cells: E. coli (pGEX-KT vector)
T2 sequence (P55055 149-455): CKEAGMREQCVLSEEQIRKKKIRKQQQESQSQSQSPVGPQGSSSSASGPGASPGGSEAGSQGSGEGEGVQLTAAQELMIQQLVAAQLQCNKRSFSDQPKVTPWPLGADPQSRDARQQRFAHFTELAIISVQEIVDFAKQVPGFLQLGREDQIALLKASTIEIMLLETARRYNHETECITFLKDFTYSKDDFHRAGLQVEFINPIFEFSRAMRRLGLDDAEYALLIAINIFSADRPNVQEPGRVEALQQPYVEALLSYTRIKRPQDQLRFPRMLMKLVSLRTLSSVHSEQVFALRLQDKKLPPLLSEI
Text: Radioligand Competition Binding Scintillation Proximity Assays:
Preparation of Recombinant Human LXRα and LXRβ:
Human LXRα and LXRβ were expressed as GST-fusion proteins in E. coli. The ligand binding domain cDNAs for human LXRα (amino acids 164-447) and human LXRβ (amino acids 149-455) were subcloned into the pGEX-KT expression vector (Pharmacia). E. coli containing the respective plasmids were propagated, induced, and harvested by centrifugation. The resuspended pellet was broken in a French press and debris was removed by centrifugation. Recombinant human LXR receptors were purified by affinity chromatography on glutathione sepharose and receptor was eluted with glutathione. Glycerol was added to a final concentration of 50% to stabilize the receptor and aliquots were stored at −80° C.
After incubation for ˜16 h at 15° C. with shaking, the assay plates were counted in a Packard Topcount.

human PPARγ = biological target: T3, human PPARγ (Homo sapiens, UniProt P37231); experiment: PPARγ competition binding assay
T3 sequence (P37231 1-505): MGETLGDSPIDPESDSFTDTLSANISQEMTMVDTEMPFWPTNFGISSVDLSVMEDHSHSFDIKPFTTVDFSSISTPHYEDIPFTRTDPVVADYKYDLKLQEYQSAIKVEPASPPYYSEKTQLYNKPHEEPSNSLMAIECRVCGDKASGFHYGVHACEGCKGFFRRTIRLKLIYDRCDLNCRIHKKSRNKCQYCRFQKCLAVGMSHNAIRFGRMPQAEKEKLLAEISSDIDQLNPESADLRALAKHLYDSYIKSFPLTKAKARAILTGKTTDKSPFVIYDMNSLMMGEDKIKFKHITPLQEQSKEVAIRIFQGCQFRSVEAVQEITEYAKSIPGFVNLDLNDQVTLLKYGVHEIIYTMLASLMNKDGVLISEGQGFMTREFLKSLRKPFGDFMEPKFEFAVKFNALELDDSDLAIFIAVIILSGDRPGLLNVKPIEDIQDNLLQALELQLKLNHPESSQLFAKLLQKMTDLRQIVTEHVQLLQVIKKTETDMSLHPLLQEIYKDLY
Text: as §1

THP-1 macrophages = experiment: Stimulation of cholesterol efflux from cultured THP-1 macrophages; type: cell-based, human; details: 24 hours, 10 μg/ml apoA-I acceptor, mean±SEM, DMSO control 9.9 ± 0.5
Text: Stimulation of Cholesterol Efflux from Cultured Cells
Patients with Tangier disease have mutations in the ABC1 gene and have very low HDL levels. Cultured cells from these patients are defective in cholesterol efflux (Francis et al. (1995) J. Clin. Invest. 96:78-87). Therefore, induction of ABC1 mRNA should lead to increased cholesterol efflux and increased HDL levels (Francis et al. (1999) Clinica Chimica Acta 286:219-230). TIIP-1 cells were used to determine whether induction of ABC1 mRNA by Compound 1 would increase cholesterol efflux. Specifically, cultured human THP-1 cells were stimulated to differentiate into macrophages by incubation with 100 nM tetradecanoyl phorbol acetate for three days, as described above. After differentiation, the TUP-1 macrophages were labeled with ^3H-cholesterol by incubation for 24 hours with 10 μCi/ml ^3H-cholesterol in Complete RPMI media containing 0.1% lipid-free bovine serum albumin (BSA) plus 100 nM tetradecanoyl phorbol acetate. After labeling, the cells were incubated for 24 hours in Complete RPMI media with 0.1% lipid-free bovine serum albumin (BSA) to allow for equilibration of cellular cholesterol pools. Cholesterol efflux was then measured over the following 24 hours by incubating the cells in Complete RPMI media containing 10 μg/ml of apoA-I as cholesterol acceptor, and either Compound 1 or DMSO as control.

IC50 (human PPARα): > 10000 nM | IC50 [1]: 40 nM | Ki ([1]; read-out: LXRβ calculated Ki): ~14 nM | IC50 (human PPARγ): > 10000 nM
SMILES: CC(=O)Oc1ccc2c(c1)[C@@]1(C)CCC[C@](C)(C(=O)OC(=O)[C@@]3(C)CCC[C@]4(C)c5cc(OC(C)=O)ccc5CC[C@@H]34)[C@@H]1CC2 [Compound 1]
Cholesterol efflux (% of cell contents) (THP-1 macrophages; 0.02 μM): 14.6 ± 0.5 % of cell contents | Cholesterol efflux (% of cell contents) (THP-1 macrophages; 2.5 μM): 17.1 ± 0.6 % of cell contents
